Experimental data as given in the NIST ThermoML archive (doi:10.1021/je200872n).
Numbers after ± are expanded uncertainties. Each block holds one compound with its values, some of them ahead of it.

Assays:
[1] = mn = molality of the nth substance listed, in mol/kg; conditions: 298.15 K, 101 kPa, Liquid; for mass density: Vibrating tube method; for viscosity: Capillary tube (Ostwald / Ubbelohde) method
[2] = refractive index (Na D-line) (dimensionless); conditions: 298.15 K; 101.33 kPa; Liquid; Standard Abbe refractometry
[3] = 298.15 K, Liquid

Structure (SMILES): CCCCCCn1cc[n+](C)c1.[Br-] [3-hexyl-1-methyl-1H-imidazolium bromide] + CN(C)C=O
- mass density ([1]; m1 = 0.0245): 945.76 ± 0.46 kg/m3
- mass density ([1]; m1 = 0.0738): 948.9 ± 0.46 kg/m3
- mass density ([1]; m1 = 0.1205): 951.72 ± 0.46 kg/m3

Structure (SMILES): CCCCCn1cc[n+](C)c1.[Br-] [1-pentyl-3-methylimidazolium bromide] + CN(C)C=O
- mass density ([1]; m1 = 0.026): 947.47 ± 0.46 kg/m3
- mass density ([1]; m1 = 0.0508): 949.26 ± 0.46 kg/m3
- mass density ([1]; m1 = 0.0747): 950.79 ± 0.46 kg/m3

Structure (SMILES): CN(C)C=O [dimethylformamide]
- refractive index [2]: 1.4281 ± 0.0004
- mass density ([3]; 101 kPa, Vibrating tube method): 944 ± 0.46 kg/m3
- viscosity ([3]; 101.33 kPa, Capillary tube (Ostwald / Ubbelohde) method): 0.805 ± 0.008 mPa·s

Next, values leading:

- viscosity ([1]; m1 = 0.01): 0.802 ± 0.008 mPa·s
- viscosity ([1]; m1 = 0.0302): 0.818 ± 0.008 mPa·s
- viscosity ([1]; m1 = 0.0505): 0.833 ± 0.008 mPa·s
- viscosity ([1]; m1 = 0.0698): 0.847 ± 0.008 mPa·s
- viscosity ([1]; m1 = 0.0851): 0.859 ± 0.008 mPa·s
- viscosity ([1]; m1 = 0.1098): 0.878 ± 0.008 mPa·s
- viscosity ([1]; m1 = 0.1268): 0.89 ± 0.008 mPa·s
- viscosity ([1]; m1 = 0.1507): 0.905 ± 0.008 mPa·s
- viscosity ([1]; m1 = 0.1705): 0.919 ± 0.008 mPa·s
- mass density ([1]; m1 = 0.0295): 946.01 ± 0.46 kg/m3
- mass density ([1]; m1 = 0.051): 947.47 ± 0.46 kg/m3
- mass density ([1]; m1 = 0.0697): 948.75 ± 0.46 kg/m3
- mass density ([1]; m1 = 0.0894): 950.08 ± 0.46 kg/m3
- mass density ([1]; m1 = 0.1106): 951.51 ± 0.46 kg/m3
- mass density ([1]; m1 = 0.1299): 952.82 ± 0.46 kg/m3
- mass density ([1]; m1 = 0.1465): 953.94 ± 0.46 kg/m3
- mass density ([1]; m1 = 0.1701): 955.51 ± 0.46 kg/m3
- mass density ([1]; m1 = 0.1898): 956.83 ± 0.46 kg/m3
Structure (SMILES): Oc1ccccc1C=Nc1ccccc1N=Cc1ccccc1O [2,2'-[1,2-phenylenebis(nitrilomethylidyne)]bis-phenol] + CN(C)C=O

- mass density ([1]; m1 = 0.1012): 951.01 ± 0.46 kg/m3
- mass density ([1]; m1 = 0.1527): 954.4 ± 0.46 kg/m3
- mass density ([1]; m1 = 0.197): 957.2 ± 0.46 kg/m3
Structure (SMILES): CCCCn1cc[n+](C)c1.[Br-] [1-butyl-3-methylimidazolium bromide] + CN(C)C=O

- mass density ([1]; m1 = 0.03): 946.19 ± 0.46 kg/m3
- mass density ([1]; m1 = 0.0789): 949.63 ± 0.46 kg/m3
- mass density ([1]; m1 = 0.122): 952.52 ± 0.46 kg/m3
Structure (SMILES): CCC[n+]1ccn(C)c1.[Br-] [1-methyl-3-propylimidazolium bromide] + CN(C)C=O
